What was measured:
[1] = Linkage (adsorption) of CTL receptor agonist to aluminum adjuvant (FIG. 2); assay type: physicochemical; details: aluminum oxyhydroxide
Source text: However, monosaccharides can be modified by a chemical group including but not limited to fluoride, phosphate, sulfate, or carbonate group which permits a ligand exchange linkage of the molecule to the aluminum-containing adjuvant. Method for modifying saccharides by addition of fluoride, phosphate, sulfate, or carbonate groups is well known in the art (Cantos, et al. Biochem. J. (1993) 288: 155-160; Carbohydrate Chemistry, Royal Society of Chemistry, Ed. RD Guthrie (1968)). This is illustrated in FIG. 2 utilizing mannose as the CTL receptor agonist and aluminum oxyhydroxide. […] However, addition of a phosphate group at the 1 position of mannose (M1P) results in approximately 100% linkage of the CTL agonist to the aluminum adjuvant.
Another method to the increased avidity of the saccharide for the aluminum adjuvant particle is polymerization. For instance the avidity of the saccharide for the aluminum adjuvant particle may be increased by increasing the size of the saccharide by polymerization to produce a polysaccharide. The increase avidity for the aluminum adjuvant is due to the larger number of interactions of a polysaccharide as compared to a monosaccharide to allow for the stable linkage of the polysaccharide agonist to the aluminum adjuvant particle. […]

[2] = Stability of CTL agonist linkage to aluminum particle on exposure to phosphate (FIG. 3A, 3B); assay type: physicochemical; details: exposed to 50 mM phosphate pH 7.4 for 30 minutes in the absence of antigen
Source text: It is important to maintain the stability of the CTL agonist linkage to the aluminum particle upon exposure to body fluid following administration. Components of interstitial fluid such as phosphate, citrate, and protein have the potential to remove the linkage of the CTL agonist with aluminum-containing adjuvants. The resulting soluble CTL agonist may adversely impact the immune response. FIG. 3A illustrates that M1P as well as mannan maintain approximately 100% linkage with aluminum oxyhydroxide when exposed to 50 mM phosphate pH 7.4 for 30 minutes in the absence of antigen.

Molecule | Linkage of the CTL agonist to the aluminum adjuvant [1] | Linkage with aluminum oxyhydroxide maintained [2]
O=P(O)(O)OC1O[C@H](CO)[C@@H](O)[C@H](O)[C@@H]1O (stereo partly shown) [Formulation M1P, mannose-1-phosphate] | approximately 100% | approximately 100%
mannan | approximately 100% | approximately 100%

— US20190105389A1, “ADJUVANT SYSTEM FOR ORAL VACCINE ADMINISTRATION” (Vaxform LLC, priority 2012, published 2019)
